Patent publication US20130143969A1 (THE OHIO STATE UNIVERSITY, priority 2010, published 2013)

Key:
in vivo = details: for AUC as % curcumin (relative percentage): oral 1.8 g/kg curcumin gel; for AUC: oral 1.8 g/kg curcumin gel in 66.7% PEG 600 + 33.3% Cremophor EL; for concentration at 10 min / concentration at 20 min / concentration at 30 min / concentration at 45 min / concentration at 60 min / concentration at 90 min / concentration at 120 min / concentration at 240 min / concentration at 480 min: CD2F1, mouse, in vivo
Source text: Extracts of bio-matrices were subjected to HPLC mass spectrometric analysis.

p15^INK4B = test: Quantitative RT-PCR of p15INK4B mRNA in leukemia cells; format: cell-based; details: MV4-11 cells, decitabine 2.5 μM, 72 hours
Experimental: (§1) Cell Cycle and Apoptosis Analysis: MV4-11, ML-1, HL-60 and K562 leukemia cell lines were cultured in RPMI medium (VWR International, Inc., West Chester, Pa.) supplemented with 10% fetal bovine serum (Invitrogen, Carlsbad, Calif.) and 1% (v/v) penicillin/streptomycin (Invitrogen Life Technologies; Carlsbad, Calif.) antibiotic solution at 37° C. in an incubator under 5% CO2 atmosphere. For the ex-vivo studies, mononuclear cells obtained from bone marrow (BM) of patient with AML were prepared by Ficoll-Hypaque (Nygaard) gradient centrifugation and cultured with serum-free expansion medium (SFEM) (StemCell technologies, Vancouver, BC) supplemented with GM-CSF (50 ng/ml), IL-3 (20 ng/ml), IL-6 (20 ng/ml) and SCF ([…]). […] The cell cycle and apoptosis of MV4-11 cells was analyzed on a BD FACS Calibur (Beckman Coulter, Fullerton, Calif.) according to the standard protocol provided by the manufacturer.
Quantitative RT-PCR was used to quantify the mRNA levels of DNMT1, DNMT3a, DNMT3b, p15INK4B and p21. Total RNA was extracted with Trizol reagent (Invitrogen, Carlsbad, Calif.) and reverse transcribed by reverse transcriptase (Invitrogen). Quantitative real-time PCR reactions were performed in triplicate using Taqman gene expression assay (Applied Biosystems) with an ABI prism 7700 detector (Applied Biosystems). The target gene values were normalized to the values of internal control GAPDH or 18 S, and expressed as relative percent change (100×2^(˜ΔΔCt)) over non-treated samples.

[1] = test system: p15^INK4B promoter region; test: DNA methylation analysis of the p15INK4B promoter region (LC-MS/MS); format: cell-based; details: MV4-11 cells, decitabine 2.5 μM, 72 hours
Experimental: Genomic DNA isolated from MV4-11 cells was treated with bisulfite using the Epi methylation Kit (Qiagen, Minneapolis, Minn.) according to the instruction from the manufacturer and followed by PCR amplification as follows. The sequences of p15^INK4B primers were: forward 5′-GGGAGGGTAATGAAGTTGAGTTTA-3′ (SEQ ID NO. 1), and reverse 5′-ACCCTAAAACCCCAACTACCTAAAT-3′ (SEQ ID NO. 2). PCR amplifications were performed as follows: 95° C. for 5.5 min, 55° C. for 30s for 5 cycles, and 52° C. for 30 s for 38 cycles, 72° C. for 30s for 38 cycles, with a final step at 72° C. for 1 min. PCRs were carried out in a 100 μl volume containing 10 μl of buffer (10×), 2 μL of each primer (10 μM), 2 μL of (10 mM) dNTPs, 2 U of Platinum Taq DNA polymerase (Invitrogen, Carlsbad, Calif.), 70.6 μL ddH2O and 10 μL of bisulfite treated DNA in a GeneAmp 9700 thermal cycler (Perkin-Elmer, Norwalk, Conn.). PCR products were purified using QIAquick columns and eluted in water. A 500 ng aliquot of the PCR product was incubated with 25 UM. […] Fully methylated PCR products were purified using the QIAquick PCR Purification kit (Qiagen, Minneapolis, Minn.), according to the manufacturer's instructions and 200 ng of the purified DNA was hydrolyzed and the concentrations of 5mdC and 2dC in the hydrolysate were measured by LC-MS/MS using the conditions as described previously.

MV4-11 cells = test: Cell cycle distribution by flow cytometry; format: cell-based; details: 2.5 μM decitabine
Experimental: as §1

[2] = mouse, oral 1.8 g/kg curcumin in 66.7% PEG 600 + 33.3% Cremophor EL, 1440 min

| Compound | AUC as % curcumin (relative percentage) (in vivo; mouse) | AUC (in vivo; mouse) | plasma level (in vivo; [2]) | plasma level (in vivo; same dosing, 10 min) | plasma level (in vivo; same dosing, 20 min) | plasma level (in vivo; same dosing, 30 min) | plasma level (in vivo; same dosing, 45 min) | plasma level (in vivo; same dosing, 60 min) | plasma level (in vivo; same dosing, 90 min) | plasma level (in vivo; same dosing, 120 min) | plasma level (in vivo; same dosing, 480 min) | concentration at 10 min (in vivo) | concentration at 20 min (in vivo) | concentration at 30 min (in vivo) | concentration at 45 min (in vivo) | concentration at 60 min (in vivo) | concentration at 90 min (in vivo) | concentration at 120 min (in vivo) | concentration at 240 min (in vivo) | concentration at 480 min (in vivo) | also measured |
| --- | --- | --- | --- | --- | --- | --- | --- | --- | --- | --- | --- | --- | --- | --- | --- | --- | --- | --- | --- | --- | --- |
| COc1cc(/C=C/C(=O)CC(=O)/C=C/c2ccc(O[C@@H]3O[C@H](C(=O)O)[C@@H](O)[C@H](O)[C@H]3O)c(OC)c2)ccc1O [GLU, curcumin O-monoglucuronide] | 382.0% | 1863.2 µM·min | 24.2129 ng/mL | 3083.366 ng/mL | 4428.71 ng/mL | 5469.386 ng/mL | 2539.161 ng/mL | 2057.704 ng/mL | 1336.072 ng/mL | 1070.25 ng/mL | 716.5084 ng/mL | – | – | – | – | – | – | – | – | – | – |
| Nc1ncn([C@H]2C[C@H](O)[C@@H](CO)O2)c(=O)n1 [decitabine, Decitabine] | – | – | – | – | – | – | – | – | – | – | – | – | – | – | – | – | – | – | – | – | increase of p15INK4B expression level (p15^INK4B): ~4 fold; decrease of p15INK4B promoter methylation level [1]: ~25%; cell population in G0/G1 phase (MV4-11 cells): 49.4%; cell population in G2/M phase (MV4-11 cells): 11.7%; cell population in S phase (MV4-11 cells): 26.2%; cell population in SubG1 phase (MV4-11 cells): 13.2% |
| O=C(/C=C/c1ccc(O)cc1)CC(=O)/C=C/c1ccc(O)cc1 [BDMO, bisdesmethoxycurcumin] | – | – | – | – | – | – | – | – | – | – | – | 65.7 ng/mL | 115 ng/mL | 51.4 ng/mL | 66.9 ng/mL | 37.3 ng/mL | 11.1 ng/mL | 15.4 ng/mL | 34.5 ng/mL | 10.9 ng/mL | – |
| curcumin O-sulfate | 3.3% | 16.2 µM·min | 0 ng/mL | 29.44 ng/mL | 54.83 ng/mL | 43.06 ng/mL | 27.51 ng/mL | 18.75 ng/mL | 8.637 ng/mL | 7.752 ng/mL | 4.05 ng/mL | – | – | – | – | – | – | – | – | – | plasma level (in vivo; same dosing, 240 min): 9.949 ng/mL |
| COc1cc(/C=C/C(O)=C/C(=O)/C=C/c2ccc(O)cc2)ccc1O [DMO, desmethoxycurcumin] | – | – | – | – | – | – | – | – | – | – | – | 148 ng/mL | 224 ng/mL | 108 ng/mL | 118 ng/mL | 76.5 ng/mL | 29.1 ng/mL | 39.5 ng/mL | 40.4 ng/mL | 15.4 ng/mL | – |
| COc1cc(CCC(=O)CC(=O)CCc2ccc(O)c(OC)c2)ccc1O [THC, tetrahydrocurcumin] | 7.9% | 38.29 µM·min | 2.239 ng/mL | 112.6977 ng/mL | 238.2446 ng/mL | 219.0996 ng/mL | 62.5 ng/mL | 39.23 ng/mL | 6.038 ng/mL | 8.631 ng/mL | 4.672 ng/mL | – | – | – | – | – | – | – | – | – | plasma level (in vivo; same dosing, 240 min): 8.173 ng/mL |
